According to ChEMBL document CHEMBL1142478, “Small molecule modulators of toll-like receptors” (J Med Chem, 2008):
Active and inactive are the calls of the source. No cut-off for these calls is given here. Where a SMILES comes first, the peptide text is derived from it. The star is where a group is joined. X1 = CCCCCCCCCCCCCC(=O)N[C@@H](C*)C(=O)NCCCCCCCC; Myristoyl = CCCCCCCCCCCCCC(=O)*

How the values were obtained:
[1] = molecular target: Toll-like receptor 4 (Mus musculus) (UniProt Q9QUK6); assay: Inhibition of mouse TLR4-mediated cytokine production in mouse macrophages
Toll-like receptor 7 [2] = molecular target: T1, Toll-like receptor 7 (Homo sapiens, UniProt Q9NYK1); assay: (§1) Agonist activity at human TLR7 by luciferase reporter gene assay; type: functional
T1 sequence (Q9NYK1 whole entry): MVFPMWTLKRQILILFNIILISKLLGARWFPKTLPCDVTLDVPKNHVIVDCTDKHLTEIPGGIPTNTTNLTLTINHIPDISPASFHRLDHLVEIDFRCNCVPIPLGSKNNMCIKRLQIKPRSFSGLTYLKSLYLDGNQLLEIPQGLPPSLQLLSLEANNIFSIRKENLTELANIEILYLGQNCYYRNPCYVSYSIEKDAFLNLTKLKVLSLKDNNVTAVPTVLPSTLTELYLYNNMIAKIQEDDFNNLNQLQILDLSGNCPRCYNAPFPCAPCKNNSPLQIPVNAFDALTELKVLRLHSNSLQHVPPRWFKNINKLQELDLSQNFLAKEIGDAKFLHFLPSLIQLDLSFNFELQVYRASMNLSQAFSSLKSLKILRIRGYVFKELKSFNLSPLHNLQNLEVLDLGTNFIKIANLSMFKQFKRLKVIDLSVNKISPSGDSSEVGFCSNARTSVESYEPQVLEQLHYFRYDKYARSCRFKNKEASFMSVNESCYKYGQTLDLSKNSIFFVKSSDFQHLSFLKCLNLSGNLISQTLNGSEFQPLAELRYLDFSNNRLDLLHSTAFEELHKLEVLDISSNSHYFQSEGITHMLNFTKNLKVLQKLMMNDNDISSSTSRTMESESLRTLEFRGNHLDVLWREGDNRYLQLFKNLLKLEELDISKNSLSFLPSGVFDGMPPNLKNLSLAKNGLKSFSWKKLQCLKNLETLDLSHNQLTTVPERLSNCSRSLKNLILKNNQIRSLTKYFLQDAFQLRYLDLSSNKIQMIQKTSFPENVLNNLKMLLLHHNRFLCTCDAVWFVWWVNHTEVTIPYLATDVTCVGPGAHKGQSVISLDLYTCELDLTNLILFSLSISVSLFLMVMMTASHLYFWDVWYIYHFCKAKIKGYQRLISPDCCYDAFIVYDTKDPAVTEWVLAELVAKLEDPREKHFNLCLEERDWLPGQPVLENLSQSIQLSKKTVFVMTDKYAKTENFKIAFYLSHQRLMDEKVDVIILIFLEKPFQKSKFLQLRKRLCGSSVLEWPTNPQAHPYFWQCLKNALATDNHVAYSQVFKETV

Toll-like receptor 8 [3] = molecular target: T2, Toll-like receptor 8 (Homo sapiens, UniProt Q9NR97); assay: Agonist activity at TLR8 in human PBMC cells assessed as TNFalpha level by ELISA; type: functional, cell-based
T2 sequence (Q9NR97 whole entry): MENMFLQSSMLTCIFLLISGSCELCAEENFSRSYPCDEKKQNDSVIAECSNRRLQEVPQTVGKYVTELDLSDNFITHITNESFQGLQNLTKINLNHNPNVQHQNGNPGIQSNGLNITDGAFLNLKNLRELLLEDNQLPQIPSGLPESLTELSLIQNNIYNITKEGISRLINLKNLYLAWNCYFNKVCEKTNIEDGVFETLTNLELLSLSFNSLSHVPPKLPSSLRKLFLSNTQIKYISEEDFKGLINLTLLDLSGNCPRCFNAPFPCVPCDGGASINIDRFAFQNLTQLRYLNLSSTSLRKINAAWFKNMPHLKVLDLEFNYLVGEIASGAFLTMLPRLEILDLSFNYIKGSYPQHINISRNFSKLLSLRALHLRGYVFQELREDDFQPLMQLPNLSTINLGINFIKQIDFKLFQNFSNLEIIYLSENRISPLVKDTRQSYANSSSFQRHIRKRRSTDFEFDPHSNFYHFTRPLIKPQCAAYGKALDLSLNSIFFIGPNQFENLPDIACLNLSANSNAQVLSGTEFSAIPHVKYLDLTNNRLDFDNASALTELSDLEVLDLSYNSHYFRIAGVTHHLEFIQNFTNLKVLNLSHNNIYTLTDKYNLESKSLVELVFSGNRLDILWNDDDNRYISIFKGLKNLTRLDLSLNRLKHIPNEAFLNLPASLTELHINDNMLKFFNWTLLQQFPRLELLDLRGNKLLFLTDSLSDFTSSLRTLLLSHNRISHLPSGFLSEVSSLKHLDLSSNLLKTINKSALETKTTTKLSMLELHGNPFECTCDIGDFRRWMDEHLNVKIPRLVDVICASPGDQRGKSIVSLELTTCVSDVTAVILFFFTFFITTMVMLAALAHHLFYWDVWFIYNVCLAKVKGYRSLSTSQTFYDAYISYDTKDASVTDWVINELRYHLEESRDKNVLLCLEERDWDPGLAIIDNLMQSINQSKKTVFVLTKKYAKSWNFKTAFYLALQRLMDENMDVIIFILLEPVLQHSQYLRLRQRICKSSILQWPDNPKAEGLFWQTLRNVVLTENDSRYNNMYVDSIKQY

Toll-like receptor 8 [4] = molecular target: T2, Toll-like receptor 8; assay: Agonist activity at human TLR8 expressed in HEK cells by NF-kappaB luciferase reporter gene assay; type: functional, cell-based, HEK293
Toll-like receptor 9 = molecular target: T3, Toll-like receptor 9 (Homo sapiens, UniProt Q9NR96); assay: Antagonist activity at human TLR9 expressed in HEK293 cells assessed as blockade of CpG oligonucleotide-induced immune response by NF-kappaB luciferase reporter gene assay; type: functional, cell-based
T3 sequence (Q9NR96 whole entry): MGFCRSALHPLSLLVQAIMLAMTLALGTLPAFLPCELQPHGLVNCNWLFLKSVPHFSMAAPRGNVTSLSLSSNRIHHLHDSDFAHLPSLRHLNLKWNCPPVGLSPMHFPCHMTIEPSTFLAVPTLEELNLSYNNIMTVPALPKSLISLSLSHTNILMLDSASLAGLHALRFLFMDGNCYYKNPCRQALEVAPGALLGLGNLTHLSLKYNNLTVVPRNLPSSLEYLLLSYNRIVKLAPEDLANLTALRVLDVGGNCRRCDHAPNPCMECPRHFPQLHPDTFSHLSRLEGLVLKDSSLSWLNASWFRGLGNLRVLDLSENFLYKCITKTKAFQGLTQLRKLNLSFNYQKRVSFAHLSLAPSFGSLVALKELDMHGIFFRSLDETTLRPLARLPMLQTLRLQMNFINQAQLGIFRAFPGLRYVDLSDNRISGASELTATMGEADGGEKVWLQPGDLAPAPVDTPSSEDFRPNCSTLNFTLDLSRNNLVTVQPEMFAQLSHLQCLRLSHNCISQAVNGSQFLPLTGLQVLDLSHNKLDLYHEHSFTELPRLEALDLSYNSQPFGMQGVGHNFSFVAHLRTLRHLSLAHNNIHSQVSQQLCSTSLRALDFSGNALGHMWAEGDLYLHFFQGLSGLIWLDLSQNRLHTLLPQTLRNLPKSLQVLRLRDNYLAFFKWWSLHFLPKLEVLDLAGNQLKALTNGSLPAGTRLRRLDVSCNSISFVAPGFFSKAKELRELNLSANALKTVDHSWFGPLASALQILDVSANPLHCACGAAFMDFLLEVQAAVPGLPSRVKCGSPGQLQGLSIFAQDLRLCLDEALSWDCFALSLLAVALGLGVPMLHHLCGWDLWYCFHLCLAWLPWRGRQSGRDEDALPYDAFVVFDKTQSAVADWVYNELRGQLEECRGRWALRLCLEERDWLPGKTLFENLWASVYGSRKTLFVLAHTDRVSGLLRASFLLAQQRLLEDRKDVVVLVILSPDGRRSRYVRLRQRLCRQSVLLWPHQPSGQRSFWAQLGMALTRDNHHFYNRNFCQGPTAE

Toll-like receptor 2 [5] = molecular target: T4, Toll-like receptor 2 (Homo sapiens, UniProt O60603); assay: Antagonist activity at human TLR2 expressed in HE293 cells co-transfected with pELAM by luciferase reporter gene assay; type: functional, cell-based, HEK293
T4 sequence (O60603 whole entry): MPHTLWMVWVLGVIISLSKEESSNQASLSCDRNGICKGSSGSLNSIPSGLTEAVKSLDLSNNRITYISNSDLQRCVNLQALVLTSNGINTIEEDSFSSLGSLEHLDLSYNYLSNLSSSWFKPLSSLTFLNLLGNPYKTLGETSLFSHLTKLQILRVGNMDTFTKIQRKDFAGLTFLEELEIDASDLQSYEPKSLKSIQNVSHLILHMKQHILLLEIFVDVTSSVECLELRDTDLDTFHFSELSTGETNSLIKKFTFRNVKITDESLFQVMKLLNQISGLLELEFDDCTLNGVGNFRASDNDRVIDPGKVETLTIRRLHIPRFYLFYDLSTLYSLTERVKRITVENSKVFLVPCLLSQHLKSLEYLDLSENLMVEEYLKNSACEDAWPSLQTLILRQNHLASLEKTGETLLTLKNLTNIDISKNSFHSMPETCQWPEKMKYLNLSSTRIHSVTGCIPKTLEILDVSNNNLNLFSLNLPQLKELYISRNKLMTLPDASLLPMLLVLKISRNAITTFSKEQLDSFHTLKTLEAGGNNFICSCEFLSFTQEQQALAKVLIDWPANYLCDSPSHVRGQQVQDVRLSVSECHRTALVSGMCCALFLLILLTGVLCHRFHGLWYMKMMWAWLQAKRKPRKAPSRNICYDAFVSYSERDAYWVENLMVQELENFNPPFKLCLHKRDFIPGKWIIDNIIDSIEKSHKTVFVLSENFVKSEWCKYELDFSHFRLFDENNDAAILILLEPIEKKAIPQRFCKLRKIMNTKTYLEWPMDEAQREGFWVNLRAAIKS

Homo sapiens = species on record: Homo sapiens; assay: Selectivity for human TLR2 over human TLR4
Toll-like receptor 2 [6] = molecular target: T4, Toll-like receptor 2; assay: Inhibition of TLR2-mediated IL8 secretion in human THP1 cells; type: cell-based, THP-1
Toll-like receptor 4 [7] = molecular target: T5, Toll-like receptor 4 (Homo sapiens, UniProt O00206); assay: Antagonist activity at TLR4 in human HL60 cells assessed as inhibition of LPS-induced cytokine production; type: functional, cell-based, HL-60
T5 sequence (O00206 whole entry): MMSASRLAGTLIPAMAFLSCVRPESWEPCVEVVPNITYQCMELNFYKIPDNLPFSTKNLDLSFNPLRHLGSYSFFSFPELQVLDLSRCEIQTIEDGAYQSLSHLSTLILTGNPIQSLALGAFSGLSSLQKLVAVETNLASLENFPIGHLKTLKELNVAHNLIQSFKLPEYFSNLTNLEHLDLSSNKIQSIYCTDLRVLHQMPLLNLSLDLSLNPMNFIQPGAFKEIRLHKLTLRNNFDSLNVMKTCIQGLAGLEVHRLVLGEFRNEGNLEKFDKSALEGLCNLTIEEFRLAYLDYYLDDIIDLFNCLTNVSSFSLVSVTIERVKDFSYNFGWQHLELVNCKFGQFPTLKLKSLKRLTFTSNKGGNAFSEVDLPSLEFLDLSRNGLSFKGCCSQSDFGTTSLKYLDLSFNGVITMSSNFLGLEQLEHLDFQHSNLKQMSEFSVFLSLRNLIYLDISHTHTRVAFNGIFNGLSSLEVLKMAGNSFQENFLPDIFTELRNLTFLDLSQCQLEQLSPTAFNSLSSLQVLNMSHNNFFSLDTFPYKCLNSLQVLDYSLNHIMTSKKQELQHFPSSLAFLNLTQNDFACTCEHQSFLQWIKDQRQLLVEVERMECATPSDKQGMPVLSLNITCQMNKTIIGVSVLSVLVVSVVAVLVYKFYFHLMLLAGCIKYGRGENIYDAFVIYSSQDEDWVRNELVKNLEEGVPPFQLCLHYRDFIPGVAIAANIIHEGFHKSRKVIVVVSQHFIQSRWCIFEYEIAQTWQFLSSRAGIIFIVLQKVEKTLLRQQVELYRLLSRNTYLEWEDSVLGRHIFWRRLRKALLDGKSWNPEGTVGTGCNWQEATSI

Toll-like receptor 4 [8] = molecular target: T5, Toll-like receptor 4; assay: Antagonist activity at human TLR4 assessed as inhibition of LPS-induced cytokine production in HL-60 cells
Toll-like receptor 7 [9] = molecular target: T1, Toll-like receptor 7; assay: Agonist activity at TLR7 in human PBMC cells assessed as stimulation of interferon release; type: functional, cell-based
[10] = molecular target: T6, Toll-like receptor 7 (Homo sapiens) (UniProt Q9NYK1); assay: as §1; type: functional
T6 sequence (whole entry): T1 sequence (Q9NYK1 whole entry)

Toll-like receptor 4 [11] = molecular target: T5, Toll-like receptor 4; assay: Antagonist activity at TLR4 in human PBMC cells assessed as suppression of LPS-induced cytokine upregulation; type: functional, cell-based
Toll-like receptor 4 [12] = molecular target: T5, Toll-like receptor 4; assay: Antagonist activity at human TLR4 expressed in HE293 cells by ELAM1-luciferase reporter gene assay; type: functional, cell-based, HEK293

## CCOC(=O)C1=CCCC1S(=O)(=O)Nc1ccc(F)cc1Cl (centres undefined)
[1]
  IC50: 110 nM

## COCCOc1nc(N)c2[nH]c(=O)n(CCCN(Cc3ccc(CC(=O)OC)cc3)C(=O)CN3CCN(C)CC3)c2n1
Toll-like receptor 7 [2]
  EC50: < 20 nM

## COCCOc1nc(N)c2nc(NCCCO)n(Cc3ccccc3)c2n1
Toll-like receptor 7 [2]
  EC50: 3200 nM

## CCOC(=O)C1=CCCCCC1S(=O)(=O)Nc1ccc(F)cc1Cl (centres undefined)
[1]
  IC50: 240 nM

## CCN(CC)C(=O)N1CC(N)=Nc2ccccc2C1
Toll-like receptor 8 [3]
  EC50: < 100000 nM
Toll-like receptor 8 [4]
  EC50: < 100000 nM

## CCOC(=O)C1=CCCCC1S(=O)(=O)Nc1ccc(Cl)cc1F (centres undefined)
[1]
  IC50: 160 nM

## CCOC(=O)N1CC(N)=Nc2ccccc2C1
Toll-like receptor 8 [3]
  EC50: < 100000 nM
Toll-like receptor 8 [4]
  EC50: < 100000 nM

## CN(C)CCNc1nc(-c2ccc(N3CCN(C)CC3)cc2)nc2ccccc12
Toll-like receptor 9
  IC50: 3 nM

## CCCCCCCCCCCCCCCCCCCC(=O)N[C@@H](COP(=O)(O)OCCNC(=O)[C@@H](NC(=O)Cc1c[nH]c2ccccc12)[C@@H](C)CC)C(=O)NCCC(O)CCCCCCCCCCCCC (some centres undefined)
Toll-like receptor 2 [5]
  IC50: 460 nM
Homo sapiens
  Selectivity ratio: > 25

## CCNc1nc2c(N)nc(OCCOC)nc2n1Cc1ccccc1
Toll-like receptor 7 [2]
  EC50: 4400 nM

## COCCOc1nc(N)c2nc(NN)n(Cc3ccccc3)c2n1
Toll-like receptor 7 [2]
  EC50: 790 nM

## Cc1ccc(Cn2c(=O)[nH]c3c(N)nc(-c4nccs4)cc32)cn1
Toll-like receptor 7 [2]
  EC50: 100 nM

## CCCCCCCCCCCCCC(=O)N[C@@H](CSC[C@H](NC(=O)CCCCCCCCCCCCC)C(=O)N[C@@H](CO)C(=O)N[C@@H](CCCCN)C(=O)N[C@@H](CCCCN)C(=O)N[C@@H](CCCCN)C(=O)N[C@@H](CCCCN)C(N)=O)C(=O)NCCCCCCCC (Myristoyl-C(X1)SKKKK-NH2)
Toll-like receptor 2 [6]
  IC50: 5000 nM

## CCOC(=O)C1=CCCCC1S(=O)(=O)NC1=NCCS1 (centres undefined)
[1]
  IC50: > 10000 nM

## CCCCCC/C=C\CCCCCCCCCC(=O)N[C@H]1[C@H](OC[C@H]2O[C@H](OP(=O)(O)O)[C@H](NC(=O)CC(=O)CCCCCCCCCCC)[C@@H](OCCCCCCCCCC)[C@@H]2O)O[C@H](COC)[C@@H](OP(=O)(O)O)[C@@H]1OCC[C@@H](CCCCCCC)OC [ERITORAN TETRASODIUM]
Toll-like receptor 4 [7]
  IC50: 1.5 nM
Toll-like receptor 4 [8]
  IC50: 1.5 nM

## COCCOc1nc(N)c2nc(S)n(Cc3cccc(CP(C)(=O)O)c3)c2n1
Toll-like receptor 7 [2]
  EC50: 10 nM
Toll-like receptor 7 [9]
  EC50: 10 nM

## CCN(CC)c1nc2c(N)nc(OCCOC)nc2n1Cc1ccccc1
[10]
  Activity: inactive

## CCCCCCCCCCCCCCCCCCCC(=O)N[C@@H](COP(=O)(O)OCCNC(=O)[C@@H](NC(=O)Cc1c[nH]c2ccc(OCc3ccccc3)cc12)[C@@H](C)CC)C(=O)NCCC(O)CCCCCCCCCCCCC (some centres undefined)
Toll-like receptor 2 [5]
  IC50: 240 nM
Homo sapiens
  Selectivity ratio: > 25

## CCCCCCCCCCCCCC(=O)N[C@@H](COP(=O)(O)OCCNC(=O)[C@@H](NC(=O)Cc1ccc(O)cc1)[C@@H](C)C(=O)O)C(=O)NCCC(CCCCCCC)OC(=O)CCCCCCCCCCC (some centres undefined)
Toll-like receptor 2 [5]
  IC50: 900 nM

## Nc1nc(NCc2ccccc2)nc2c1[nH]c(=O)n2Cc1cccc(CP(=O)(O)O)c1
Toll-like receptor 7 [2]
  EC50: 10 nM
Toll-like receptor 7 [9]
  EC50: 10 nM

## Nc1ccccc1Oc1ccc2c(N)nsc2c1
Toll-like receptor 4 [11]
  IC50: 3000 nM
Toll-like receptor 4 [12]
  IC50: 7000 nM

## COCCOc1nc(N)c2nc(N)n(Cc3ccccc3)c2n1
Toll-like receptor 7 [2]
  EC50: > 10000 nM

## CCOC(=O)C1=CCCCC1S(=O)(=O)Nc1ccc(F)cc1Cl (centres undefined)
[1]
  IC50: 3.2 nM

## COCCOc1nc(N)c2[nH]c(=O)n(CCCN(Cc3ccc(CC(=O)OC)cc3)C(=O)CCC(=O)OC(C)(C)C)c2n1
Toll-like receptor 7 [2]
  EC50: < 20 nM

## CCCCCCCCCCCCCCCC(=O)N[C@@H](COP(=O)(O)OCCNC(=O)[C@@H](NC(=O)Cc1c[nH]c2ccc(-c3ccccc3)cc12)[C@@H](C)CC)C(=O)NCCCOC(=O)CCCCCCCCCCC
Toll-like receptor 2 [5]
  IC50: 230 nM

## CCOC(=O)c1ccccc1S(=O)(=O)Nc1ccc(F)cc1Cl
[1]
  IC50: > 10000 nM
